Measured values from the supplement of paper PMC4649846.

Legend:
[1] = system: MDA-MB-231; details: incubation time: 72 h
Procedure: (§1)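 MDA-MB-231 breast cancer cells were transfected with siBRCA1 or non-targeting siControl, then seeded 24 h later at 4000 cells/well in 384-well plates holding 198 drugs at 5 concentrations. Viability was read by CellTiter-Blue after 72 h at 37 °C. Dose-response curves were fitted in Dotmatics to give IC50 and a drug sensitivity score (DSS: area under the curve relative to the area between the 10% threshold and 100% inhibition, normalised by the log of the top response). The dose range is not stated. IC50 values of 8333.3 or 4166.7 nM mark no response (top dose), and 0.8333 nM is the lower limit.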

[2] = system: MDA-MB-231; test: drug sensitivity score (DSS); higher = more sensitive; extreme values may be limits of the assay; details: incubation time: 72 h
Procedure: as §1

[3] = siRNA: siControl (non-targeting)

Row | SMILES | IC50 of cell viability ([1]; siRNA: siBRCA1) [nM] | IC50 of cell viability [1, 3] [nM] | drug sensitivity score ([2]; siRNA: siBRCA1) | drug sensitivity score [2, 3]
1 | CC[C@H](Nc1ncnc2[nH]cnc12)c1nc2cccc(F)c2c(=O)n1-c1ccccc1 [CAL-101] | > 4170 | 1090 | 0 | 2.02
2 | O=c1[nH]c(=O)n([C@H]2C[C@H](O)[C@@H](CO)O2)cc1F [Floxuridine] | 748 | 291 | 8.85 | 11.5
3 | C#Cc1cccc(Nc2ncnc3cc(OCCOC)c(OCCOC)cc23)c1 [Erlotinib] | > 4170 | > 4170 | 0 | 0
4 | COc1cc([C@@H]2c3cc4c(cc3[C@@H](O[C@@H]3O[C@@H]5CO[C@@H](C)O[C@H]5[C@H](O)[C@H]3O)[C@H]3COC(=O)[C@H]23)OCO4)cc(OC)c1O [Etoposide] | 91.9 | > 4170 | 10 | 2.9
5 | O=C1CN2Cc3c(ccc(Cl)c3Cl)N=C2N1 [Anagrelide] | > 4170 | > 4170 | 0 | 0
6 | Cc1c2oc3c(C)ccc(C(=O)N[C@@H]4C(=O)N[C@H](C(C)C)C(=O)N5CCC[C@H]5C(=O)N(C)CC(=O)N(C)[C@@H](C(C)C)C(=O)O[C@@H]4C)c3nc-2c(C(=O)N[C@@H]2C(=O)N[C@H](C(C)C)C(=O)N3CCC[C@H]3C(=O)N(C)CC(=O)N(C)[C@@H](C(C)C)C(=O)O[C@@H]2C)c(N)c1=O [Dactinomycin] | 4.19 | 2.18 | 36.8 | 38.3
7 | O=c1[nH]cc(F)c(=O)[nH]1 [Fluorouracil] | > 4170 | > 4170 | 1.13 | 0.956
8 | N[C@@H](Cc1ccc(N(CCCl)CCCl)cc1)C(=O)O [Melphalan] | > 4170 | > 4170 | 0 | 0
9 | Oc1ncc(N(CCCl)CCCl)c(O)n1 [Uracil mustard] | > 4170 | > 4170 | 0 | 0
10 | Oc1ncnc2[nH]ncc12 [Allopurinol] | > 4170 | > 4170 | 0 | 0
11 | COc1cc2c(Oc3ccc(NC(=O)C4(C(=O)Nc5ccc(F)cc5)CC4)cc3F)ccnc2cc1OCCCN1CCOCC1 [Foretinib] | 503 | 585 | 13.6 | 12.8
12 | CC(C)C[C@H](NC(=O)[C@@H](COC(C)(C)C)NC(=O)[C@H](Cc1ccc(O)cc1)NC(=O)[C@H](CO)NC(=O)[C@H](Cc1c[nH]c2ccccc12)NC(=O)[C@H](Cc1cnc[nH]1)NC(=O)[C@@H]1CCC(=O)N1)C(=O)N[C@@H](CCCNC(=N)N)C(=O)N1CCC[C@H]1C(=O)NNC(N)=O [Goserelin] | > 4170 | > 4170 | 0 | 0
13 | Cc1ccc(-n2nc(C(C)(C)C)cc2NC(=O)Nc2ccc(OCCN3CCOCC3)c3ccccc23)cc1 [Doramapimod] | > 4170 | > 4170 | 0 | 0
14 | C1CN1c1nc(N2CC2)nc(N2CC2)n1 [Triethylenemelamine] | > 4170 | > 4170 | 0 | 0
15 | Cc1cc(Nc2cc(CN3CCOCC3)c3nc(C)c(Cc4ccc(Cl)cc4F)n3n2)n[nH]1 | 1380 | > 4170 | 6.15 | 3.18
16 | Nc1nc(F)nc2c1ncn2[C@@H]1O[C@H](CO)[C@@H](O)[C@@H]1O [Fludarabine] | > 4170 | 333 | 0 | 3.39
17 | CNC(=O)c1ccccc1Sc1ccc2c(/C=C/c3ccccn3)n[nH]c2c1 [Axitinib] | > 4170 | > 4170 | 0 | 0
18 | O=C(Nc1ccncc1)C(=O)c1cn(Cc2ccc(Cl)cc2)c2ccccc12 [Indibulin] | 753 | 632 | 7.58 | 7.93

More lines, main results first:

Row | IC50 of cell viability ([1]; siRNA: siBRCA1) [nM] | IC50 of cell viability [1, 3] [nM] | SMILES | drug sensitivity score ([2]; siRNA: siBRCA1) | drug sensitivity score [2, 3]
19 | 610 | 297 | Cn1cnc2c(F)c(Nc3ccc(Br)cc3Cl)c(C(=O)NOCCO)cc21 [Selumetinib] | 10.3 | 10.7
20 | > 4170 | > 4170 | Clc1ccc(C(c2ccccc2Cl)C(Cl)Cl)cc1 (configuration not stated) [Mitotane] | 1.03 | 0
21 | > 4170 | > 4170 | NC(=O)c1ccc(I)c([N+](=O)[O-])c1 [Iniparib] | 0 | 0
22 | > 4170 | > 4170 | C[C@H]1C[C@@H]2[C@H]([C@@H](O)C[C@@]3(C)[C@H]2CC[C@]3(O)C(=O)CO)[C@@]2(C)C=CC(=O)C=C12 [Methylprednisolone] | 0 | 0
23 | 517 | 206 | CO[C@@H]1[C@H](N(C)C(=O)c2ccccc2)C[C@H]2O[C@]1(C)n1c3ccccc3c3c4c(c5c6ccccc6n2c5c31)C(=O)NC4 [PKC412 (Midostaurin)] | 11 | 14.7
24 | > 4170 | 2560 | c1ccc2c(CCNc3ccc(Nc4ccncc4)cc3)c[nH]c2c1 [Serdemetan] | 4.84 | 6.59
25 | > 4170 | > 4170 | CC1(C)NC(=O)N(c2ccc([N+](=O)[O-])c(C(F)(F)F)c2)C1=O [Nilutamide] | 0 | 0
26 | 249 | 251 | C/C(=C\c1csc(C)n1)[C@@H]1C[C@@H]2O[C@]2(C)CCC[C@H](C)[C@H](O)[C@@H](C)C(=O)C(C)(C)[C@@H](O)CC(=O)N1 [Ixabepilone] | 14.8 | 16.2
27 | 3.9 | 4.02 | CO[C@H]1C[C@@H]2CC[C@@H](C)[C@@](O)(O2)C(=O)C(=O)N2CCCC[C@H]2C(=O)O[C@H]([C@H](C)C[C@@H]2CC[C@@H](OC(=O)C(C)(CO)CO)[C@H](OC)C2)CC(=O)[C@H](C)/C=C(\C)[C@@H](O)[C@@H](OC)C(=O)[C@H](C)C[C@H](C)/C=C/C=C/C=C/1C [Temsirolimus] | 14.6 | 14.4
28 | 66.8 | 28.9 | CN[C@@H]1C[C@H]2O[C@@](C)([C@@H]1OC)n1c3ccccc3c3c4c(c5c6ccccc6n2c5c31)C(=O)N[C@H]4O [UCN-01] | 23.4 | 27.8
29 | 348 | 230 | C=CCn1c(=O)c2cnc(Nc3ccc(N4CCN(C)CC4)cc3)nc2n1-c1cccc(C(C)(C)O)n1 [MK1775] | 13.2 | 14.3
30 | > 4170 | 4.32 | CN(Cc1cnc2nc(N)nc(N)c2n1)c1ccc(C(=O)N[C@@H](CCC(=O)O)C(=O)O)cc1 [Methotrexate] | 0 | 9.3
31 | > 4170 | > 4170 | CN1CCN(c2nc(C3=C(c4c[nH]c5ccccc45)C(=O)NC3=O)c3ccccc3n2)CC1 [Sotrastaurin] | 0 | 0
32 | > 4170 | > 4170 | CO[C@@]12[C@H](COC(N)=O)C3=C(C(=O)C(C)=C(N)C3=O)N1C[C@@H]1N[C@@H]12 [Mitomycin C] | 0 | 0
33 | > 4170 | > 4170 | CNNCc1ccc(C(=O)NC(C)C)cc1 [Procarbazine] | 0 | 0
34 | 53.1 | 30.1 | CC(C)(C)c1cnc(CSc2cnc(NC(=O)C3CCNCC3)s2)o1 [SNS-032] | 23.9 | 27.6
35 | > 4170 | > 4170 | S=P(N1CC1)(N1CC1)N1CC1 [Thiotepa] | 0 | 0
36 | 973 | 1080 | COc1cccc2cc(-c3nc([C@H]4CC[C@H](C(=O)O)CC4)n4ncnc(N)c34)[nH]c12 [OSI-027] | 7.16 | 7.26
37 | 3160 | > 4170 | c1ccc([C@H]2CN3CCSC3=N2)cc1 [Levamisole] | 0.142 | 0
38 | 1850 | > 4170 | Nc1nc2[nH]cnc2c(=S)[nH]1 [Thioguanine] | 3.71 | 0
